Test results from patent US20250179050A1, “POLYMORPH AS THYROID HORMONE RECEPTOR AGONISTS AND USE THEREOF” (XIZANG HAISCO PHARMACEUTICAL CO., LTD., priority 2022, published 2025).
Values belong to the compound of their own block, whether it stands above or below them.

Tests used:
Type in all cases: physicochemical
[1] = Stability test 2: 40° C.±2° C., 75% RH±5% RH, HPLC related substances and crystal form; details: for Crystal form / Related Substances (%) Maximum individual impurity / Related Substances (%) Total impurity: 40° C.±2° C.
Procedure: The Form C sample was measured using the HPLC method at 40° C.±2° C., 75% RH±5% RH at months 0, 1, 2, 3, and 6 using a double layer pharmaceutical low density polyethylene bag as an inner wrap and a polyester/aluminum/polyethylene pharmaceutical composite bag as an outer wrap.

[2] = Stability test 5: 30° C.±2° C., 65% RH±5% RH, HPLC related substances; details: for Crystal form / Related Substances (%) Maximum individual impurity / Related Substances (%) Total impurity: 30° C.±2° C.
Procedure: The Form C sample was measured using the HPLC method at 30° C.±2° C., 65% RH±5% RH at months 0, 3, 6, 9, and 12 using a double layer pharmaceutical low density polyethylene bag as an inner wrap and a polyester/aluminum/polyethylene pharmaceutical composite bag as an outer wrap.

[3] = Stability test 3: 5° C.±3° C., HPLC related substances; details: for Crystal form / Related Substances (%) Maximum individual impurity / Related Substances (%) Total impurity: 5° C.±3° C.
Procedure: The Form C sample was measured using the HPLC method at 5° C.±3° C. at months 0, 3, 6, 9, and 12 using a double layer pharmaceutical low density polyethylene bag as an inner wrap and a polyester/aluminum/polyethylene pharmaceutical composite bag as an outer wrap.

[4] = Stability test 4: 25° C.±2° C., 60% RH±5% RH, HPLC related substances; details: for Crystal form / Related Substances (%) Maximum individual impurity / Related Substances (%) Total impurity: 25° C.±2° C.
Procedure: The Form C sample was measured using the HPLC method at 25° C.±2° C., 60% RH±5% RH at months 0, 3, 6, 9, and 12 using a double layer pharmaceutical low density polyethylene bag as an inner wrap and a polyester/aluminum/polyethylene pharmaceutical composite bag as an outer wrap.

[5] = Stability test 1: high temperature, high humidity, light, accelerated conditions, XRPD; details: 15 days
Procedure: Around 20 mg of samples were weighed into weighing bottles, stored under high temperature (60° C.), high humidity (25° C., 92.5% RH), light (25° C., 4500 Lux), accelerated (40° C., 75% RH) conditions, respectively, and samples were collected at days 7 and 15 for XRPD characterization.

[6] = Dynamic moisture sorption and desorption analysis (DVS)
Procedure: Dynamic Moisture Sorption and Desorption Analysis The dynamic moisture sorption and desorption analysis was determined using DVS Intrinsic (SMS, UK). The test was carried out in a gradient mode with a humidity change of 50%-95%-0%-50%, and a humidity change of 10% per gradient in the range of 0% to 90%, and the gradient endpoint was determined in dm/dt, with the gradient endpoint being dm/dt less than 0.002% and held for 10 minutes. After the test was complete, XRPD analysis of the sample was carried out to confirm whether the solid morphology has changed.

[7] = Thermal crystal transformation test (hot stage, XRPD)
Procedure: The present invention further provides a method for preparing the polymorph of any one of Form A to Form Z, including: • (1) suspension method: adding a crude free base of the compound of formula I (which can be prepared according to the methods described in WO 2019240938 A1) to a selected single or binary solvent until a suspension is formed and stirring same under suspension at room temperature to 50° C. for a period of time (e.g., 1 h to 3 days, or 2 h to 24 h, or 2 h to 12 h, or 3 h to 5 h), and then centrifuging and separating the suspension, followed by drying, to obtain the product; or • (2) Anti-solvent crystallization method: adding a crude free base of the compound of formula I to an appropriate amount of a good solvent until completely dissolved, taking an amount of the solution and dropwise adding same to a poor solvent or dropwise adding a poor solvent to the solution, and stirring same to precipitate a solid, followed by separation and drying to obtain the product; or • (3) cooling method: adding a crude free base of the compound of formula I to an appropriate amount of a solvent at 50-80° C. until the solid is just completely dissolved, and transferring the solution to an environment at room temperature for cooling, followed by leaving to stand or crystallization under stirring, separation and drying to obtain the product; or • (4) vapor diffusion method: dropwise adding an appropriate amount of a good solvent to an amount of a crude free base of the compound of formula I at room temperature to completely dissolve the sample or formulating same as a saturated solution of a good solvent; and separately taking an amount of the solution, and leaving the clear solution to stand in a poor solvent atmosphere at room temperature until a solid precipitates out, followed by separation, to obtain the product; or • (5) thermal crystal transformation method: placing an amount of the sample on a glass plate on a hot stage, heating same to the target temperature at a rate (e.g., 5-20° C./min, or 10-15° C./min), and maintaining the temperature for a period of time (e.g., 0.5-5 min, or 1-3 min, or 1-2 min), followed by naturally cooling down to room temperature to obtain a solid.
The different crystal forms, as raw materials, were heated to the target temperature on a hot table and held for 1 min, and cooled to room temperature to obtain solids for the XRPD test.

[8] = Crystal form on leaving to stand at room temperature; details: room temperature for 3 days
Procedure: To 100 mg of the compound of formula I prepared in Example 1, 1 ml of methanol was added and heated to reflux. 1 ml of acetonitrile was added dropwise, slowly cooled to room temperature, stirred for 3-5 h and centrifuged, and the resulting solid was dried under vacuum overnight at room temperature to give Form U. Form U of the compound of formula I was characterized by XRPD, DSC and TGA, as shown in FIGS. 41-42, respectively. […] Based on the integration results, the roughly estimated mass percentage is about 5.2%. In summary, Form U is a solvate of acetonitrile in a ratio of 1:1 of the compound to acetonitrile.

Crystal form ([1]; 0 months): Form C
Related Substances (%) Maximum individual impurity ([1]; 0 months): 0.05%
Related Substances (%) Total impurity ([1]; 0 months): 0.26%
Crystal form ([1]; 1 month): Form C
Related Substances (%) Maximum individual impurity ([1]; 1 month): 0.05%
Related Substances (%) Total impurity ([1]; 1 month): 0.25%
Crystal form ([1]; 2 months): Form C
Related Substances (%) Maximum individual impurity ([1]; 2 months): 0.05%
Related Substances (%) Total impurity ([1]; 2 months): 0.26%
Crystal form ([1]; 3 months): Form C
Related Substances (%) Maximum individual impurity ([1]; 3 months): 0.05%
Related Substances (%) Total impurity ([1]; 3 months): 0.26%
Crystal form ([1]; 6 months): Form C
Related Substances (%) Maximum individual impurity ([1]; 6 months): 0.05%
Related Substances (%) Total impurity ([1]; 6 months): 0.28%
stability (related substances) ([1]; within 6 months at 40° C.±2° C.): good stability
Crystal form ([2]; 0 months): Form C
Related Substances (%) Maximum individual impurity ([2]; 0 months): 0.05%
Related Substances (%) Total impurity ([2]; 0 months): 0.26%
Crystal form ([2]; 3 months): Form C
Related Substances (%) Maximum individual impurity ([2]; 3 months): 0.05%
Related Substances (%) Total impurity ([2]; 3 months): 0.26%
Crystal form ([2]; 6 months): Form C
Related Substances (%) Maximum individual impurity ([2]; 6 months): 0.05%
Related Substances (%) Total impurity ([2]; 6 months): 0.27%
Crystal form ([2]; 9 months): Form C
Related Substances (%) Maximum individual impurity ([2]; 9 months): 0.05%
Related Substances (%) Total impurity ([2]; 9 months): 0.25%
Crystal form ([2]; 12 months): Form C
Related Substances (%) Maximum individual impurity ([2]; 12 months): 0.05%
Related Substances (%) Total impurity ([2]; 12 months): 0.26%
stability (related substances) ([2]; within 12 months at 30° C.±2° C.): good stability
Crystal form ([3]; 0 months): Form C
Related Substances (%) Maximum individual impurity ([3]; 0 months): 0.05%
Related Substances (%) Total impurity ([3]; 0 months): 0.26%
Crystal form ([3]; 3 months): Form C
Related Substances (%) Maximum individual impurity ([3]; 3 months): 0.05%
Related Substances (%) Total impurity ([3]; 3 months): 0.27%
Crystal form ([3]; 6 months): Form C
Related Substances (%) Maximum individual impurity ([3]; 6 months): 0.05%
Related Substances (%) Total impurity ([3]; 6 months): 0.26%
Crystal form ([3]; 9 months): Form C
Related Substances (%) Maximum individual impurity ([3]; 9 months): 0.05%
Related Substances (%) Total impurity ([3]; 9 months): 0.26%
Crystal form ([3]; 12 months): Form C
Related Substances (%) Maximum individual impurity ([3]; 12 months): 0.05%
Related Substances (%) Total impurity ([3]; 12 months): 0.26%
stability (related substances) ([3]; within 12 months at 5° C.±3° C.): good stability
Crystal form ([4]; 0 months): Form C
Related Substances (%) Maximum individual impurity ([4]; 0 months): 0.05%
Related Substances (%) Total impurity ([4]; 0 months): 0.26%
Crystal form ([4]; 3 months): Form C
Related Substances (%) Maximum individual impurity ([4]; 3 months): 0.05%
Related Substances (%) Total impurity ([4]; 3 months): 0.27%
Crystal form ([4]; 6 months): Form C
Related Substances (%) Maximum individual impurity ([4]; 6 months): 0.05%
Related Substances (%) Total impurity ([4]; 6 months): 0.26%
Crystal form ([4]; 9 months): Form C
Related Substances (%) Maximum individual impurity ([4]; 9 months): 0.05%
Related Substances (%) Total impurity ([4]; 9 months): 0.26%
Crystal form ([4]; 12 months): Form C
Related Substances (%) Maximum individual impurity ([4]; 12 months): 0.05%
Related Substances (%) Total impurity ([4]; 12 months): 0.27%
stability (related substances) ([4]; within 12 months at 25° C.±2° C.): good stability
crystal form stability (XRPD) ([5]; accelerated (40° C., 75% RH)): no change in crystal form
crystal form stability (XRPD) ([5]; high humidity (25° C., 92.5% RH)): no change in crystal form
crystal form stability (XRPD) ([5]; high temperature (60° C.)): no change in crystal form
crystal form stability (XRPD) ([5]; light (25° C., 4500 Lux)): no change in crystal form
hygroscopicity ([6]; DVS 50%-95%-0%-50% humidity): almost no hygroscopicity
DVS weight loss ([6]; at 0% humidity): 0.13%
DVS weight gain ([6]; at 95% humidity): 0.20%
crystal form after the DVS test (XRPD) ([6]; samples after the DVS test): no change in crystal form
SMILES: [2H]C([2H])([2H])[C@@H]1CCc2c(Oc3c(Cl)cc(-n4nc(C#N)c(=O)[nH]c4=O)cc3Cl)n[nH]c(=O)c21 [Form C, (R)-2-(3,5-dichloro-4-((7-(methyl-d3)-1-oxo-2,5,6,7-tetrahydro-1H-cyclopenta [d]pyridazin-4-yl)oxy)phenyl)-3,5-dioxo-2,3,4,5-tetrahydro-1,2,4-triazine-6-carbonitrile]

crystal form after thermal crystal transformation ([7]; heated to 250° C.): Form C
Results (crystal form after thermal crystal transformation, XRPD) ([7]; target temperature 250° C., heating rate 10° C./min, holding time 1 min): Form C
crystal form after leaving to stand [8]: Form L
SMILES: [2H]C([2H])([2H])[C@@H]1CCc2c(Oc3c(Cl)cc(-n4nc(C#N)c(=O)[nH]c4=O)cc3Cl)n[nH]c(=O)c21 [Form U, (R)-2-(3,5-dichloro-4-((7-(methyl-d3)-1-oxo-2,5,6,7-tetrahydro-1H-cyclopenta [d]pyridazin-4-yl)oxy)phenyl)-3,5-dioxo-2,3,4,5-tetrahydro-1,2,4-triazine-6-carbonitrile]
